The values below come from US20230212180A1, “SUBSTITUTED PYRAZINE COMPOUND, PHARMACEUTICAL COMPOSITION COMPRISING SAME, AND USE THEREOF” (Sichuan Kelun-Biotech Biopharmaceutical Co., Ltd., priority 2020, published 2023).

A short description of series [1]: Pharmacokinetic (PK) studies in beagle dog. The series is classed as in vivo. The note with it: for AUC(0-t) / clearance / half-life: dog, male beagle dogs, plasma. The method, then:
Test Example 8: Pharmacokinetic (PK) Studies in Beagle Dog
(§1) The compound of Example 12, Control Compound 1, Control Compound 2, and TNO-155 were administered to male beagle dogs by intravenous injection (IV) and gavage (PO) respectively to estimate the pharmacokinetic properties. Dosing amounts for IV and PO routes were 0.5 mg/kg and 2.5 mg/kg. The solvent for IV route was 5% DMSO+5% Solutol+90% Saline, and the solvent for PO route was 0.5% MC (sodium methylcellulose). Blood was collected at various time points after IV and PO administration. The blood was anticoagulated using EDTA.K2, and centrifuged to obtain plasma samples. The plasma samples were preserved at −80° C.
The plasma samples were subjected to protein precipitation and then to the LC-MS/MS analysis. WinNonlin 6.3 software was used to calculate the pharmacokinetic parameters by non-compartmental model, and the results were listed in Table 8 below.

Series [2] can be described thus: Pharmacokinetic (PK) studies in Balb/c mouse. The series is classed as in vivo. The note with it: for AUC(0-t): read-out: AUClast; for half-life: read-out: T1/2 (converted). The method, then: Test Example 7: Pharmacokinetic (PK) Studies in Balb/c Mouse
as §1, with “to female Balb/c mice” for “to male beagle dogs”, “were 1” for “were 0.5”, “and 10 mg/kg, respectively.” for “and 2.5 mg/kg.”, “blood from the test groups of the compound of Example 12, Control Compound 1, and Control Compound 2” for “blood”, “using EDTA.K2 and preserved at −80° C. The blood from the test groups of TNO-155 was anticoagulated using EDTA.K2” for “using EDTA.K2,”, “plasma samples, and the” for “plasma samples. The”
The blood or plasma samples were subjected to protein precipitation and then to the LC-MS/MS analysis. WinNonlin 6.3 software was used to calculate the pharmacokinetic parameters by non-compartmental model, and the results were listed in Table 7 below.

Series [3] has as its system 100 kinase targets. Put plainly: Kinase selectivity test, whole panel (ThermoFisher). In kind it is biochemical. The method, then:
(§2) Test Example 11: Kinase Selectivity Test
(§3) 1. Experimental Purpose: Tests for selectivity of the compounds of the present disclosure for a plurality of kinases were carried out to assess the safety risk of the compounds of the present disclosure.
(§4) 2. Test institution: ThermoFisher USA
(§5) 3. Testing methods: LanthaScreen binding, Z′-LYTE, Adapta
(§6) 4. Test targets: 100 targets in total

Series [4] deals with KYSE-520 cell xenograft. Put plainly: Tumor inhibition in KYSE-520 xenograft model. The note with it: for TGI (%) (calculated by the tumor volume): once-daily oral, 21 consecutive days. The series is classed as in vivo, nu-nu mice. As for the experimental part: Test Example 9: Experiment on Tumor Inhibition in KYSE-520 Xenograft Model
A CDX xenograft animal model was established by subcutaneously inoculating KYSE-520 cells in nu-nu mice. After tumor formation, the mice were orally administered once daily to evaluate the in vivo drug efficacy of different test compounds.
The KYSE-520 cells were subjected to monolayer in vitro culture. The culture conditions were as follows: 10% fetal bovine serum was added into the RPMI 1640 medium, and the cells were cultured in an incubator at 37° C. in air containing 5% CO2. The cells were digested twice a week with […] for passaging. When the cells were in exponential growth phase, the cells were harvested and counted. The KYSE-520 cell strains cultured to the logarithmic growth phase were prepared into a single cell suspension (the cells were resuspended in PBS and mixed with Matrigel Matrix Phenol Red-free at a ratio of 1:1, and the final concentration of the cells was 5×10^7/ml). Each of the nude mice was inoculated with 0.1 ml subcutaneously into the right axilla of the nude mice to establish a xenograft model of nude mice with esophageal cancer. When the tumors grew to 130 mm^3, the nude mice were randomly divided into 5 groups and administered. The dosage regime was as shown in Table 9 (once-daily oral administration for 21 consecutive days). The vehicle was 5% DMSO+5% Solutol+90% H2O.
The animals were monitored daily for health and mortality. Routine inspections included observing the influences of drug treatment on the animals' daily behaviors, such as actions and activities, food (water) intake, physical signs, or other abnormalities, and recording them accordingly.
Mice were weighed and tumor volumes were measured twice a week, and the data were recorded. The tumor volume (V) was calculated by the following equation: V=½×a×b^2, wherein a and b indicated the length and width, respectively.
The anti-tumor efficacy was evaluated by tumor growth inhibition TGI (%). […] When the tumor regressed, TGI (%) (tumor volume)=100%−(TVt−TV0)/TV0×100%.

In series [5] the target is T1, EGFR (ErbB1) T790M L858R (Homo sapiens, UniProt P00533, L858R/T790M).
T1 construct: purchased ThermoFisher USA (contract testing)
T1 sequence (P00533 25-1210 T790M/L858R): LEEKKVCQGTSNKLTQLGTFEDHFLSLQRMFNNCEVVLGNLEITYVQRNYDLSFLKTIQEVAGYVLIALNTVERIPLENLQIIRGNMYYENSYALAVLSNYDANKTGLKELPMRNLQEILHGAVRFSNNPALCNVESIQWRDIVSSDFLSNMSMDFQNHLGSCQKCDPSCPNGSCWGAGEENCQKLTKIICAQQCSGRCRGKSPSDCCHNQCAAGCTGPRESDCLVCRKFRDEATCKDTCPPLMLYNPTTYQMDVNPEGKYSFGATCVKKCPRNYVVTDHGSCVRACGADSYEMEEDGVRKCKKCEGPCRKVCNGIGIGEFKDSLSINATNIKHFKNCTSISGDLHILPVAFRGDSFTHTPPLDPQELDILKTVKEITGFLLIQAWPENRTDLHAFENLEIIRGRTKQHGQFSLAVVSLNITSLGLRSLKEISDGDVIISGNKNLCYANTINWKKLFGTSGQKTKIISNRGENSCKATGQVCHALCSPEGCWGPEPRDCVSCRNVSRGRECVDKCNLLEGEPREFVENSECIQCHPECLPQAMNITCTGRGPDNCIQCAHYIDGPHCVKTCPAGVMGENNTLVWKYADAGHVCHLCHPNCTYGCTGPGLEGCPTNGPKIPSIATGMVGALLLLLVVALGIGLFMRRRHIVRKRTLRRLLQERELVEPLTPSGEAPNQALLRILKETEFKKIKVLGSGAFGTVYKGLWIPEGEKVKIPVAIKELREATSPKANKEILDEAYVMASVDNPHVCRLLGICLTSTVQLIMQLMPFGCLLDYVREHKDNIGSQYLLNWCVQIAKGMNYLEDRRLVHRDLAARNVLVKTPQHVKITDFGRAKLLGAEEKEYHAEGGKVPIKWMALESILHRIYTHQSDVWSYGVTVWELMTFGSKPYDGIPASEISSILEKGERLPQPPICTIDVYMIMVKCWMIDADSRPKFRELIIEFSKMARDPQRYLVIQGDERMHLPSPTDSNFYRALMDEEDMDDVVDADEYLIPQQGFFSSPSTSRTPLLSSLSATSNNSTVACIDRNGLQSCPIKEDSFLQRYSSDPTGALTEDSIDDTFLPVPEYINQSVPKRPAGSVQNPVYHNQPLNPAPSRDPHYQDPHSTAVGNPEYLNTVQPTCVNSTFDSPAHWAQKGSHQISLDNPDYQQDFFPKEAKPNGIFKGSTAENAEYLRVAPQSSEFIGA
Put plainly: Kinase selectivity test (ThermoFisher). The series is classed as biochemical. As for the experimental part:
as §2, §3, §4, §5, §6

Where [6] appears, read: mouse, in vivo, female Balb/c mice, PO, 10 mg/kg, blood (TNO-155: plasma).
Setting [7] is: mouse, whole blood (TNO-155: plasma), female Balb/c mice, PO, 10 mg/kg, blood (TNO-155: plasma).

`C[C@@H]1OCC2(CCN(c3ncc(Sc4ccnc(N5CC(C(C)(C)O)C5)c4Cl)nc3CO)CC2)[C@@H]1N` [Example 12, 2-(1-(4-(5-((3S,4S)-4-amino-3-methyl-2-oxa-8-azaspiro[4.5]decan-8-yl)-6-(hydroxymethyl)pyrazin-2-ylthio)-3-chloropyridin-2-yl)azetidin-3-yl)propan-2-ol]: the “pharmacokinetic properties (in words)” value in series [1] (beagle dog, 0.5 mg/kg by injection and 2.5 mg/Kg by mouth) is “excellent pharmacokinetic properties”; in series [2] (Balb/c mice, 1 mg/kg by injection and 10 mg/Kg by mouth), “excellent pharmacokinetic properties”. In addition, the AUC(0-t) in series [1] (in vivo, IV, 0.5 mg/kg) is 3090 ng·h/mL; in series [1] (in vivo, PO, 2.5 mg/kg), 11000 ng·h/mL; in series [2] (mouse, in vivo, female Balb/c mice, IV, 1 mg/kg, blood (TNO-155: plasma)), 2590 ng·h/mL; in series [2] (setting [6]), 12300 ng·h/mL. In addition, the clearance was found to be 2.31 mL/min/kg in series [1] (in vivo, IV, 0.5 mg/kg) and 6.23 mL/min/kg in series [2] (mouse, in vivo, female Balb/c mice, IV, 1 mg/kg, blood (TNO-155: plasma), read-out: Cl). Besides, the half-life in series [1] (in vivo, PO, 2.5 mg/kg) was 24.5 h; in series [2] (setting [6]), 7.13 h. The “inhibitory effect on all of the 100 kinase targets” value in series [3] (all 100 kinase targets) is on record as “weak inhibitory effect”. In addition, the “TGI (%) (calculated by the tumor volume)” value in series [4] (10 mpk) was 81.28%; in series [4] (30 mpk) it was 96.93%. In addition, the “tumor inhibitory effect (in words)” value in series [4] (oral administration for 21 consecutive days) is “remarkable tumor inhibitory effect”. Moreover, the “Inhibition (%) Target 1” value in series [5] is recorded as 0%. Also, in series [5], the “Inhibition (%) Target 2” value was 5%. The “Inhibition (%) Mean value” in series [5] was found to be 2%.
In series [1] (IV, 0.5 mg/kg), `C[C@@H]1OCC2(CCN(c3cnc(Sc4ccnc(N)c4Cl)c(N)n3)CC2)[C@@H]1N` [TNO-155, reference compound] showed an AUC(0-t) of 2350 ng·h/mL and a clearance of 3.43 mL/min/kg. Moreover, in series [1] (PO, 2.5 mg/kg), the AUC(0-t) stood at 10100 ng·h/mL and the half-life was 13.2 h. This molecule gave a Cl in series [2] (female Balb/c mice, IV, 1 mg/kg, blood (TNO-155: plasma)) of 24 mL/min/kg. Also, the AUC(0-t) in series [2] (mouse, whole blood (TNO-155: plasma), female Balb/c mice, IV, 1 mg/kg, blood (TNO-155: plasma)) was found to be 672 ng·h/mL. Further, in series [2] (setting [7]), the AUC(0-t) is 7910 ng·h/mL and the half-life was 1.69 h. The “inhibitory effect on the remaining 86 targets” value in series [3] (86 of the 100 kinase targets) is given as “weak inhibitory effect”. Besides, in series [3] (the 14 kinases of the table), the “inhibitory effect on the above 14 kinase targets” value is “strong inhibitory effect”. The “TGI (%) (calculated by the tumor volume)” value in series [4] (10 mpk) is 55.49%. Besides, the “TGI (%) (calculated by the tumor volume)” value in series [4] (30 mpk) is reported as 72.74%. In series [5], the “Inhibition (%) Target 1” value stood at 81%, the “Inhibition (%) Target 2” value was found to be 77% and the “Inhibition (%) Mean value” was 79%.
